Values quoted from earlier work in US11198731B2 (Exelixis, Inc., priority 2017, dated 2021).
Where two headings read alike, the source gives them in different places.

Columns and labels:
[1] = tested on: platinum-pretreated NSCLC; details: cited from earlier work; for OS hazard ratio: vs docetaxel
[2] = tested on: NSCLC without EGFR genetic alterations; details: cited from earlier work
[3] = tested on: advanced RCC after prior VEGFR-TKI; details: cited from earlier work
[4] = tested on: advanced CRPC with bone metastases; details: cited from earlier work
[5] = tested on: previously-untreated advanced RCC of intermediate- or poor-risk; details: cited from earlier work
[6] = tested on: locally advanced or metastatic UC; details: cited from earlier work
[7] = tested on: cisplatin-ineligible UC; details: cited from earlier work
[8] = tested on: locally advanced or metastatic UC; details: cited from earlier work; remark: listed apart in the source
[9] = tested on: advanced RCC of clear cell or non-clear cell histology; details: cited from earlier work
[10] = tested on: advanced NSCLC; details: cited from earlier work
[11] = PD-L1 positive population (2 1% PD-L1 expression)
[12] = subjects with ≥5% PD-L1 expression

CC(=O)O[C@@]12CO[C@@H]1C[C@H](O)[C@@]1(C)C(=O)[C@H](O)C3=C(C)[C@@H](OC(=O)[C@H](O)[C@@H](NC(=O)OC(C)(C)C)c4ccccc4)C[C@@](O)([C@@H](OC(=O)c4ccccc4)[C@H]21)C3(C)C [docetaxel]
Median OS ([1]; ITT population): 9.6 months
ORR ([1]; ITT population): 13%
Median OS [1, 11]: 10.3 months
Treatment-related Grade 3 or 4 AEs [1]: 43%
Median DOR ([1]; in vivo): 6.2 months
Subjects who discontinued treatment due to AE ([1]; in vivo): 19%

C#Cc1cccc(Nc2ncnc3cc(OCCOC)c(OCCOC)cc23)c1 [erlotinib, reference compound]
Progression as best response ([2]; % of subjects): 66%
Estimated median OS ([2]; in vivo): 5.1 months
ORR ([2]; in vivo): 3%
PFS ([2]; second or third line treatment): 1.8 months

CO[C@H]1C[C@@H]2CC[C@@H](C)[C@@](O)(O2)C(=O)C(=O)N2CCCC[C@H]2C(=O)O[C@H]([C@H](C)C[C@@H]2CC[C@@H](OCCO)[C@H](OC)C2)CC(=O)[C@H](C)/C=C(\C)[C@@H](O)[C@@H](OC)C(=O)[C@H](C)C[C@H](C)/C=C/C=C/C=C/1C [everolimus]
ORR per IRC ([3]; ITT population): 3%
Median duration of PFS (Kaplan-Meier) ([3]; Primary Endpoint Intent-to-Treat population): 3.8 months
Median duration of OS (Kaplan-Meier) ([3]; in vivo): 16.5 months
Treatment discontinuations due to AEs ([3]; incidence in each arm): 10%

C[C@]12C=CC(=O)C=C1CC[C@@H]1[C@@H]2C(=O)C[C@@]2(C)[C@H]1CC[C@]2(O)C(=O)CO [prednisone, reference compound]
Proportion of subjects with a bone scan response (BSR) per IRC ([4]; at Week 12): 3%
Median PFS per investigator ([4]; exploratory endpoint): 2.8 months
Median duration of BSR ([4]; in vivo): 1.8 months
Median duration of OS (Kaplan-Meier) ([4]; in vivo): 9.8 months

CCN(CC)CCNC(=O)c1c(C)[nH]c(/C=C2\C(=O)Nc3ccc(F)cc32)c1C [sunitinib, reference compound]
Discontinued study treatment due to an AE ([5]; 16 subjects in each arm): 21%
Adverse events of ≥Grade 3 regardless of causality ([5]; % of subjects): 65%
≥Grade 3 AE: PPE ([5]; in vivo): 4%
≥Grade 3 AE: diarrhea ([5]; in vivo): 11%
≥Grade 3 AE: fatigue ([5]; in vivo): 17%
≥Grade 3 AE: hematological events ([5]; in vivo): 21%
≥Grade 3 AE: hypertension ([5]; in vivo): 21%

atezolizumab: humanized immunoglobulin (Ig) G1 monoclonal antibody that targets programmed death receptor 1 ligand (PD-L1)
Duration of response (DOR) ([6]; overall population): 21.7 months
Overall ORR ([6]; overall population): 13%
OS hazard ratio ([6]; overall population, vs chemotherapy): 0.85
ORR [6, 12]: 23.0%
Median OS ([7]; all subjects irrespective of PD-L1 expression level): 15.9 months
Overall ORR by IRF ([7]; all subjects): 23%
ORR by IRF ([7]; subjects with <5% PD-L1): 21%
ORR by IRF [7, 12]: 28%
Adverse events leading to treatment discontinuation ([8]; in vivo): 3.2%
Treatment-emergent anti-therapeutic antibodies detected ([8]; in vivo): 41.5%
irAE: aspartate aminotransferase (AST) increased ([8]; in vivo): 2%
irAE: pneumonitis ([8]; in vivo): 2%
Median OS ([8]; overall population): 7.9 months
Median PFS ([8]; overall population): 2.1 months
Overall ORR by IRF ([8]; overall population): 14.8%
ORR by IRF ([8]; subjects with <5% PD-L1 expression): 9.5%
ORR by IRF ([8]; subjects with ? 5% PD-L1 expression): 26.0%
Median OS [8, 12]: 11.9 months
Median OS ([9]; clear cell RCC): 28.9 months
Overall median PFS ([9]; clear cell RCC): 5.6 months
Grade 4 or 5 treatment-related AEs ([9]; in vivo): no Grade 4 or 5 treatment-related AEs
Treatment-related Grade 3 events ([9]; in vivo): 17%
Median OS ([1]; ITT population): 13.8 months
ORR ([1]; ITT population): 14%
OS hazard ratio ([1]; ITT population): 0.73
Median OS [1, 11]: 15.7 months
OS hazard ratio ([1]; PD-L1 positive population): 0.74
AE of any grade: asthenia ([1]; in vivo): 8%
AE of any grade: decreased appetite ([1]; in vivo): 9%
AE of any grade: fatigue ([1]; in vivo): 14%
AE of any grade: nausea ([1]; in vivo): 9%
Immune-related AE: colitis ([1]; in vivo): two
Immune-related AE: hepatitis ([1]; in vivo): two
Immune-related AE: pneumonitis ([1]; in vivo): four
Median DOR ([1]; in vivo): 16.3 months
Subjects who discontinued treatment due to AE ([1]; in vivo): 8%
Treatment-related Grade 3 or 4 AEs ([1]; in vivo): 15%
Median OS ([10]; PD-L1 high group): 26.9 months
Median PFS ([10]; PD-L1 high group): 5.4 months
Median duration of response ([10]; PD-L1 high group): ~10 months
AE leading to discontinuation: Grade 3 or 4 pneumonitis ([10]; in vivo): 1%
AE leading to discontinuation: any grade pneumonia ([10]; in vivo): 1%
Adverse events leading to treatment discontinuation ([10]; in vivo): 7%
Treatment-related AEs of Grade 3 or 4 ([10]; in vivo): 9%
Treatment-related Grade 5 event ([10]; in vivo): no treatment-related Grade 5 event
OS ([10]; unselected untreated NSCLC subjects): 23.5 months
